Results on 3 molecules are retold here after article PMC6207618, “The GbsR Family of Transcriptional Regulators: Functional Characterization of the OpuAR Repressor” (Frontiers in Microbiology, 2018).

The subject of assay [1] is opuAA-treA reporter activity. As to the kind of experiment: opuAA-treA reporter fusion TreA enzyme activity assay. In kind it is cell-based, Bacillus subtilis. The conditions noted are these: strain STHB10 (OpuAR+), SMM with 1.2 M NaCl, 1 mM compatible solute. The source says:
opuAAB.infantis′-treA reporter gene fusions were constructed using primers opuAR treA Frag1/2 rev and either opuAR treA Frag1/4 for (Supplementary Table S2) to amplify a 1940-bp DNA fragment from chromosomal DNA of B. infantis NRRL B-14911, including the predicted opuA promoter region and the coding region of opuAR, or primer opuAR treA Frag2 for, to generate a fragment lacking the opuAR gene. PCR products, which had been cut with BamHI and SmaI, were cloned into the vector pJMB1 ([Hoffmann et al., 2013]). This vector carries a promoterless treA gene, whose gene product [phospho-α-(1,1)-glucosidase] can be assayed and photometrically quantitated with the chromogenic substrate α-PNPG ([Gotsche and Dahl, 1995]). The plasmids resulting for the construction of the treA transcriptional reporter gene fusions were named pSTH33 (opuAR^+/opuAAB.i-treA) and pSTH34 (opuAR^-/opuAAB.i-treA) (Supplementary Table S3). All treA reporter gene fusions were stably integrated as a single copy into the chromosome of various B. subtilis strains at the amyE gene; all of these strains carry a gene disruption mutation of the native chromosomal treA gene of B. subtilis to allow the assignment of the measured TreA enzyme activity to the reporter gene constructs (Supplementary Table S1).
Aliquots (1.5 ml) from cultures of B. subtilis strains carrying chromosomal opuAAB.i′-treA reporter operon gene fusions (Supplementary Table S1) were used to monitor the expression levels by assaying the TreA reporter enzyme activity as described previously using the chromogenic substrate α-PNPG ([Gotsche and Dahl, 1995]). The TreA-specific activity is expressed in units per milligram of protein. Protein concentrations were estimated from the optical density of the cell culture harboring the treA reporter operon gene fusion ([Miller, 1972]).
FIGURE 6 Influence of the B. subtilis GbsR-like regulators on the expression of opuA from B. infantis and its transcriptional response to the presence of compatible solutes. (A) Genetic structure of the opuAA-treA transcriptional reporter fusions. (B) The opuAA-treA reporter gene fusions, either including or lacking the B. infantis opuAR gene, were integrated into the chromosome of the B. subtilis strain STHB05; it carries gene disruption mutations of all three GbsR-like regulators, resulting in strains STHB10 (OpuAR^+) and STHB11 (OpuAR^-). […] The opuAA-treA reporter strains were grown in SMM to early exponential growth phase (OD578 1–1.5) and then assayed for TreA reporter enzyme activity. The shown data represent four independent biological replicates and each culture was assayed twice. (C) Strain STHB10 (opuAR^+/opuAA-treA) was grown in SMM with increasing NaCl concentrations until each of these cultures reached mid-exponential growth phase (OD578 of about 1.5) and were then harvested for TreA reporter enzyme activity assays. The given data are the means and standard deviations of four independent biological replicates and each culture was assayed twice. (D) Expression of the opuAA-treA reporter gene construct in response to extracellular provided compatible solutes. The opuAA-treA reporter fusion strains STHB10 (OpuAR^+) and STHB11 (OpuAR^-) were cultivated in SMM containing 1.2 M NaCl either in the absence or presence of 1 mM of the indicated compatible solutes. The opuAA-treA reporter fusion strains were grown to early exponential growth phase (OD578 1–1.5) and then assayed for TreA reporter enzyme activity. The given data are the means and standard deviations of four independent biological replicates and each culture was assayed twice.
To identify possible effector molecules for the B. infantis OpuAR protein, we conducted a series of in vivo experiments in which we assessed any possible inducing effects of compatible solutes on opuAA-treA transcriptional activity in an OpuAR-dependent fashion (Figure 6D).

Assay [2] deals with B. infantis OpuAR protein (OpuAR-Strep-tag II recombinant protein) (Bacillus infantis NRRL B-14911). The experiment in a line: SEC; HiLoad 16/600 Superdex 200 pg; 2 ml of affinity-purified OpuAR (1.5 mg/ml) loaded straight after purification; 100 mM KPP (pH 8), 300 mM NaCl; column standardised with thyroglobulin, albumin, ovalbumin and cytochrome C. In general terms: Size exclusion chromatography separates by hydrodynamic size, large species first.

For the molecule `C[N+](C)(C)CCOS(=O)(=O)[O-]` [choline-O-sulfate], the “Induction of opuAA-treA reporter activity (OpuAR-dependent)” value in assay [1] is recorded as “did not serve as inducers”.

On to `CC1=NCC[C@@H](C(=O)O)N1` [ectoine], for which the “Induction of opuAA-treA reporter activity (OpuAR-dependent)” value in assay [1] is on record as “did not serve as inducers”.

On to “B. infantis OpuAR protein (OpuAR-Strep-tag II recombinant protein) (natural protein)”, for which the stoichiometry N in assay [2] worked out at 2.

A word on the stoichiometry N: it is a count of units in the complex or per binding partner.
